Measurements reported in ChEMBL document CHEMBL3044963, “Synthesis and in vitro anticancer activity of novel thiazacridine derivatives” (Med Chem Res, 2013).
Values after ≈ are worked out from the molar mass of the structure shown.

What was measured:
HCT-8 [1] = assay: Anticancer activity against Homo sapiens (human) HCT8 cells assessed as growth inhibition at 25 ug/ml after 72 hr by MTT assay; format: functional; settings: HCT-8, 72 h, read-out: GI
HL-60 = assay: Anticancer activity against Homo sapiens (human) HL60 cells assessed as inhibition of cell survival after 72 hr by MTT assay; format: functional, cell-based; settings: HL-60, 72 h
HCT-8 [2] = assay: Anticancer activity against Homo sapiens (human) HCT8 cells assessed as inhibition of cell survival after 72 hr by MTT assay; format: functional, cell-based; settings: HCT-8, 72 h
SF-295 [3] = assay: Anticancer activity against Homo sapiens (human) SF295 cells assessed as growth inhibition at 25 ug/ml after 72 hr by MTT assay; format: functional; settings: SF-295, 72 h, read-out: GI
MDA-MB-435 [4] = assay: Anticancer activity against Homo sapiens (human) MDA-MB-435 cells assessed as growth inhibition at 25 ug/ml after 72 hr by MTT assay; format: functional; settings: MDA-MB-435, 72 h, read-out: GI
MDA-MB-435 [5] = assay: Anticancer activity against Homo sapiens (human) MDA-MB-435 cells assessed as inhibition of cell survival after 72 hr by MTT assay; format: functional, cell-based; settings: MDA-MB-435, 72 h
SF-295 [6] = assay: Anticancer activity against Homo sapiens (human) SF295 cells assessed as inhibition of cell survival after 72 hr by MTT assay; format: functional, cell-based; settings: SF-295, 72 h
SF-295 [7] = assay: Anticancer activity against Homo sapiens (human) SF295 cells assessed as growth inhibition at 0.3 ug/ml after 72 hr by MTT assay; format: functional; settings: SF-295, 72 h, read-out: GI
MDA-MB-435 [8] = assay: Anticancer activity against Homo sapiens (human) MDA-MB-435 cells assessed as growth inhibition at 0.3 ug/ml after 72 hr by MTT assay; format: functional; settings: MDA-MB-435, 72 h, read-out: GI
HCT-8 [9] = assay: Anticancer activity against Homo sapiens (human) HCT8 cells assessed as growth inhibition at 0.3 ug/ml after 72 hr by MTT assay; format: functional; settings: HCT-8, 72 h, read-out: GI

`O=C1CSC(=O)N1Cc1c2ccccc2nc2ccccc12` was tested, and the inhibition of growth at 25 µg/mL (HCT-8 [1]) was 42%, the IC50 (HL-60) was greater than 25 µg/mL and the IC50 (HCT-8 [2]) was greater than 25 µg/mL. For the same compound, the inhibition of growth at 25 µg/mL (SF-295 [3]) was 32.8%, the inhibition of growth at 25 µg/mL (MDA-MB-435 [4]) was 0% and the IC50 (MDA-MB-435 [5]) was greater than 25 µg/mL. It also gave an IC50 (SF-295 [6]) greater than 25 µg/mL.

`O=C1S/C(=C\c2c3ccccc3nc3ccccc23)C(=O)N1Cc1c2ccccc2nc2ccccc12` gave an inhibition of growth at 25 µg/mL (HCT-8 [1]) of 92.4%, an IC50 (HL-60) greater than 25 µg/mL and an IC50 (HCT-8 [2]) of 4.45 µg/mL (≈ 8.94 µM). For the same compound, the inhibition of growth at 25 µg/mL (SF-295 [3]) was 76.7%, the inhibition of growth at 25 µg/mL (MDA-MB-435 [4]) was 95.9% and the IC50 (MDA-MB-435 [5]) was 7.01 µg/mL (≈ 14.1 µM). The IC50 (SF-295 [6]) was 4.44 µg/mL (≈ 8.92 µM).

In the case of `COc1ccc(/C=C2\SC(=O)N(Cc3c4ccccc4nc4ccccc34)C2=O)cc1`, the inhibition of growth at 25 µg/mL (HCT-8 [1]) is reported as 86.7%, the IC50 (HL-60) is reported as greater than 25 µg/mL and the IC50 (HCT-8 [2]) is reported as 19.3 µg/mL (≈ 45.2 µM). For the same compound, the inhibition of growth at 25 µg/mL (SF-295 [3]) was 59.5%, the inhibition of growth at 25 µg/mL (MDA-MB-435 [4]) was 84.2% and the IC50 (MDA-MB-435 [5]) was greater than 25 µg/mL. It also gave an IC50 (SF-295 [6]) greater than 25 µg/mL.

For `Cc1ccc(/C=C2\SC(=O)N(Cc3c4ccccc4nc4ccccc34)C2=O)cc1`, the inhibition of growth at 25 µg/mL (HCT-8 [1]) was 51.3%, the IC50 (HL-60) was greater than 25 µg/mL and the IC50 (HCT-8 [2]) was greater than 25 µg/mL. The inhibition of growth at 25 µg/mL (SF-295 [3]) was 29.9%, the inhibition of growth at 25 µg/mL (MDA-MB-435 [4]) was 31.2% and the IC50 (MDA-MB-435 [5]) was greater than 25 µg/mL. For the same compound, the IC50 (SF-295 [6]) was greater than 25 µg/mL.

Compound `O=C1S/C(=C\c2ccc(Cl)cc2)C(=O)N1Cc1c2ccccc2nc2ccccc12` has an inhibition of growth at 25 µg/mL (HCT-8 [1]) of 37.8%, an IC50 (HL-60) greater than 25 µg/mL and an IC50 (HCT-8 [2]) greater than 25 µg/mL. The inhibition of growth at 25 µg/mL (SF-295 [3]) was 31.3%, the inhibition of growth at 25 µg/mL (MDA-MB-435 [4]) was 0% and the IC50 (MDA-MB-435 [5]) was greater than 25 µg/mL. It also gave an IC50 (SF-295 [6]) greater than 25 µg/mL.

With `O=C1S/C(=C\c2ccc(Br)cc2)C(=O)N1Cc1c2ccccc2nc2ccccc12` the inhibition of growth at 25 µg/mL (HCT-8 [1]) was 96.6%, the IC50 (HL-60) was 19.5 µg/mL (≈ 41 µM) and the IC50 (HCT-8 [2]) was 20.6 µg/mL (≈ 43.4 µM). The inhibition of growth at 25 µg/mL (SF-295 [3]) was 62.2%, the inhibition of growth at 25 µg/mL (MDA-MB-435 [4]) was 85.3% and the IC50 (MDA-MB-435 [5]) was greater than 25 µg/mL. The IC50 (SF-295 [6]) was greater than 25 µg/mL.

With `CS(=O)(=O)c1ccc(/C=C2\SC(=O)N(Cc3c4ccccc4nc4ccccc34)C2=O)cc1` the inhibition of growth at 25 µg/mL (HCT-8 [1]) was 64.3%, the IC50 (HL-60) was greater than 25 µg/mL and the IC50 (HCT-8 [2]) was greater than 25 µg/mL. The inhibition of growth at 25 µg/mL (SF-295 [3]) was 44.3%, the inhibition of growth at 25 µg/mL (MDA-MB-435 [4]) was 12.9% and the IC50 (MDA-MB-435 [5]) was greater than 25 µg/mL. It also gave an IC50 (SF-295 [6]) greater than 25 µg/mL.

Compound `COc1ccc(/C=C2\SC(=O)N(Cc3c4ccccc4nc4ccccc34)C2=O)cc1Br` has an inhibition of growth at 25 µg/mL (HCT-8 [1]) of 72.5%, an IC50 (HL-60) greater than 25 µg/mL and an IC50 (HCT-8 [2]) greater than 25 µg/mL. The inhibition of growth at 25 µg/mL (SF-295 [3]) was 48%, the inhibition of growth at 25 µg/mL (MDA-MB-435 [4]) was 53% and the IC50 (MDA-MB-435 [5]) was greater than 25 µg/mL. The IC50 (SF-295 [6]) was greater than 25 µg/mL.

`COc1cccc2c1C(=O)c1c(O)c3c(c(O)c1C2=O)C[C@@](O)(C(=O)CO)C[C@@H]3O[C@H]1C[C@H](N)[C@H](O)[C@H](C)O1` [DOXORUBICIN] was tested, and the inhibition of growth at 0.3 µg/mL (SF-295 [7]) was 91.1%, the inhibition of growth at 0.3 µg/mL (MDA-MB-435 [8]) was 93.6% and the inhibition of growth at 0.3 µg/mL (HCT-8 [9]) was 95.2%. It also gave an IC50 (MDA-MB-435 [5]) of 0.24 µg/mL (≈ 0.442 µM) and an IC50 (SF-295 [6]) of 0.48 µg/mL (≈ 0.883 µM).
